Test results taken from patent US5561127A, “Muscarinic receptor ligands” (Allelix Biopharmaceuticals, Inc., priority 1994, dated 1996).

What was measured:
[1] = target: T1, human D2 receptor (short isoform) (Homo sapiens, UniProt P14416); experiment: Dopamine D2 receptor binding assay (displacement of 3H-spiperone); settings: 3H-spiperone 0.25 nM, GH4C1 cells transfected with human D2 short isoform, room temperature, 90 min; read-out: Receptor affinity D2 (Ki)
T1 construct: expressed in transfected cells
T1 sequence (P14416 1-414 isoform P14416-2): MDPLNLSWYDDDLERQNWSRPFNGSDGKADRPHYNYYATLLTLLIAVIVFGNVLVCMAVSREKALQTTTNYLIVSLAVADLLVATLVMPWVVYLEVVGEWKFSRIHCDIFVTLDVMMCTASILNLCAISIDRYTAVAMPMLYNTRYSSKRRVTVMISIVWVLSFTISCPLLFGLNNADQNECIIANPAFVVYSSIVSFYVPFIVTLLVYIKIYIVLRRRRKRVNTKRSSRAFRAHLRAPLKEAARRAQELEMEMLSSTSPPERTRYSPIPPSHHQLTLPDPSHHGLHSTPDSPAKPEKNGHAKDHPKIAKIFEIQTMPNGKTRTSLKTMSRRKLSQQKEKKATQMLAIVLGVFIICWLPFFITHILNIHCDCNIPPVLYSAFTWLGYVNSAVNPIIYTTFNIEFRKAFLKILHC
Method: GH4 C1 (rat pituitary) cells stably transfected with the human D2 receptor (short isoform) were grown in CO2 independent media in roller bottles (1500 cm^2) for 10 days. 100 μM ZnSO4 was added to the cells (the D2 promoter being zinc inducible). After 16 hours, fresh media was added to allow the cells to recover for 24 hours. The cells were harvested using versene and then centrifuged in a Sorval centrifuge for 10 minutes, at 5000 rpm (GS3 rotor). Pellets were quickly frozen in liquid nitrogen and stored at -80° C. until used in the binding assays. When used in the assay, cells were thawed on ice for 20 minutes. Each roller bottle produced approximately 72 mg of protein.
This assay employed the same procedures as the non-specific binding assay for D4 with the exception that 2 μM (final conc.) of (-) sulpiride (Research Chemicals Inc.) was used in place of dopamine.

[2] = target: muscarinic M1/M2 receptor; experiment: Muscarinic M1/M2 receptor binding assay (displacement of 3H-QNB); settings: 3H-QNB 0.126 nM, rat frontal cortex membranes, 32° C., 60 min, pH 7.4; read-out: Receptor affinity M1/M2 (Ki)
[3] = target: T2, human D4 receptor (D4.2 sub-type) (Homo sapiens, UniProt P21917, DEL265-296); experiment: Dopamine D4 receptor binding assay (displacement of 3H-spiperone); settings: 3H-spiperone 0.25 nM, transfected with human D4.2, room temperature, 90 min; read-out: Receptor affinity D4 (Ki)
T2 construct: expressed in transfected cells; host or cells: HEK 298 (so in the source)
T2 sequence (P21917 with tags, fused parts or gaps DEL265-296): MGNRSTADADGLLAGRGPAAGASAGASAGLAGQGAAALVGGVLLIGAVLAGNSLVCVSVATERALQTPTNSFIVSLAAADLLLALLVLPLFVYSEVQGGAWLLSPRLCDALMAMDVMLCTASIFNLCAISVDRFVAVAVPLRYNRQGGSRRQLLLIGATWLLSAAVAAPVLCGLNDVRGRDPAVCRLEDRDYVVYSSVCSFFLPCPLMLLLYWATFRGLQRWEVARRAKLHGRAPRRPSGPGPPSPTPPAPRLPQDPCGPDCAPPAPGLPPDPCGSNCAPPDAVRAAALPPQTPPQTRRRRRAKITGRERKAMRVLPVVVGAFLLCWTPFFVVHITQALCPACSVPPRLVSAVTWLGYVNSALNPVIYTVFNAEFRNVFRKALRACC
Method: Dopamine Receptor Binding Assay
The cells were then centrifuged in a Sorval centrifuge for 10 minutes, 5000 rpm (GS3 rotor) and the pellets quickly frozen in liquid nitrogen and stored at -80° C. until used in binding assay. When used in the assay, cells were thawed on ice for 20 minutes and then 10 mL of incubation buffer (50 mM Tris, 1 mM EDTA, 4 mM MgCl2, 5 mM KCl, 1.5 mM CaCl2, 120 mM NaCl, pH7.4) was added. […] Concentration of receptor protein was determined using the Pierce BCA assay.

[4] = target: 5-HT2 receptor (Rattus norvegicus, UniProt P14842); experiment: 5-HT2 receptor binding assay (displacement of 3H-ketanserin)
Sequence of 5-HT2 receptor (P14842 whole entry): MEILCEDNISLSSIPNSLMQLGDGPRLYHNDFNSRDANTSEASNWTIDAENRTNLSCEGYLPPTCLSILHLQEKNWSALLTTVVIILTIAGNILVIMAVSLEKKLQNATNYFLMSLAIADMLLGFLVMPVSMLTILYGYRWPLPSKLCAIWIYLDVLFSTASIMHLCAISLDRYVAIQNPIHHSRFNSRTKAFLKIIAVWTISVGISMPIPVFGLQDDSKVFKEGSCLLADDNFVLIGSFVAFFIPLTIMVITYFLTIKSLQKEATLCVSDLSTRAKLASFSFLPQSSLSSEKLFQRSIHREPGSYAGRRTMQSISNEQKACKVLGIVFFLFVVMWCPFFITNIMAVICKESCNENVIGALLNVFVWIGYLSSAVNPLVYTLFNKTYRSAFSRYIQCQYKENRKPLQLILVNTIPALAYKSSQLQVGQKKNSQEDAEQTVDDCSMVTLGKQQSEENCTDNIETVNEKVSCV

Q: For `CN1CC2CC1CN2C1=Nc2cc(Cl)ccc2Oc2ccccc21` (stereo not drawn) [8-chloro-11-(2-methyl-2,5-diazabicyclo(2.2.1)hept-5-yl)-dibenz[b,f][1,4]oxazepine], which Ki [1] is on record?
A: 4.52 µM

Q: What about the Ki [2] of the same molecule?
A: 0.028 µM

Q: What about the Ki [3] of the same molecule?
A: 4.77 µM

Q: What about the Ki [4] of the same molecule?
A: 1.02 µM

Q: How did the Ki [1] turn out when `c1ccc(CN2CC3CC2CN3C2=Nc3ccccc3Oc3ccccc32)cc1` (stereo not drawn) [11-(2-benzyl-2,5-diazabicyclo(2.2.1)hept-5-yl)-dibenz[b,f][1,4]oxazepine] was run?
A: 1.33 µM

Q: And the Ki [2]?
A: 0.882 µM

Q: What about the Ki [3] of the same molecule?
A: 0.632 µM

Q: And the Ki [4]?
A: 3.67 µM

Q: How did the Ki [1] turn out when `CN1CC2CC1CN2C1=Nc2cc(Cl)c(Cl)cc2Nc2ccccc21` (stereo not drawn) [7,8-dichloro-11-(2-methyl-2,5-diazabicyclo(2.2.1)hept-5-yl)-dibenzo[b,e][1,4]diazepine] was run?
A: 4.71 µM

Q: What about the Ki [2] of the same molecule?
A: 0.041 µM

Q: What about the Ki [3] of the same molecule?
A: 4.77 µM

Q: What about the Ki [4] of the same molecule?
A: 1.6 µM
